The structures appear in SMILES notation. Several values for one entry are separate records, joined by “and”; a condition that tells them apart may be missing. Equal entries are not always repeated.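 Growth conditions: 96-well plates. Treatment: test compound, 48 hours, 5 concentrations. Analysis: linear interpolation between bracketing concentrations; unreached endpoints set to highest concentration. GI50: concentration for 50% inhibition of growth. TGI is the concentration that stops growth completely.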

What all share (assay): NCI-60 cell line screen, 48 h
Assay [1] deals with DU-145 prostate.
Assay [2] has as its system NCI-H522 lung.
Assay [3] concerns SNB-19 CNS.
Assay [4] has as its system MOLT-4 leukemia.
The subject of assay [5] is M14 melanoma.
Assay [6] has as its system SK-OV-3 ovarian.
The subject of assay [7] is NCI-H23 lung.
In assay [8] the test system is IGROV1 ovarian.
Assay [9] concerns UACC-257 melanoma.
Assay [10] concerns ACHN renal.

Regarding `COc1cc(/C=C/C(=O)c2cccc(-n3cc(-c4ccc(Cl)cc4)[nH]c3=O)c2)ccc1O`, the GI50 in assay [1] was 2.6 µM; in assay [2] it was 1.81 µM; in assay [3] it was 3.52 µM; in [4], 1.62 µM; in assay [5] it was 3.51 µM; in assay [6] it was 4.78 µM. For the same compound, the GI50 in assay [7] was 4.43 µM; in [8], 2 µM; in assay [9] it was 5.53 µM; in assay [10] it was 2.19 µM. In addition, the TGI in assay [1] was 7.55 µM; in assay [2], 11 µM; in [3] it was 15.6 µM; in [4] it was over 25.1 µM; in [5] it was 15.2 µM; in [6], over 30.2 µM. For the same compound, the TGI in assay [7] was 24.4 µM; in assay [8], 5.61 µM; in assay [9] it was 18.6 µM; in assay [10] it was 4.95 µM.
As to `Cc1ccc2c(C3C(C#N)=C(N)Oc4cc5ccccc5cc43)cc(=O)oc2c1` (stereo unspecified), the GI50 was 3.79 µM in assay [1]; 0.446 µM in assay [2]; 1.79 µM in assay [3]; 2.05 µM in assay [4]; 0.697 µM in [5]; 2.04 µM in assay [6]. The GI50 in [7] is 6.06 µM; in assay [8], 0.983 µM; in [9], 24.5 µM; in assay [10], 4.54 µM. The TGI in assay [1] was over 100 µM; in assay [2], 11.6 µM; in assay [3] it was over 100 µM; in [4], over 100 µM; in assay [5] it was 21.3 µM; in [6], over 100 µM. Also, the TGI in assay [7], in assay [8], in assay [9] and in assay [10] was over 100 µM in each case.
Consider `COC12C(COC(N)=O)C3=C(C(=O)C(C)=C(N)C3=O)N1CC1C2N1C` (stereo unspecified), for which the TGI in [1] was determined as 15.3 µM; in [2], 25.4 µM; in assay [3], 62.5 µM; in assay [4], 18.6 µM; in assay [5], 22.7 µM; in assay [6], 49 µM. Further, the TGI was found to be 17.6 µM in assay [7], 28.6 µM in assay [8], 35.6 µM in assay [9] and 25.3 µM in [10].
In the case of `C=COC(=O)N[C@H]1CCc2cc(OC)c(OC)c(OC)c2-c2ccc(SC)c(=O)cc21`, the TGI in [1] is under 0.01 µM; in [2], under 0.01 µM; in assay [3] it was 24.8 µM; in [4], over 96.8 µM; in [5], 14.7 µM; in [6] it was 3.5 µM. The TGI in assay [7] was 12.1 µM; in [8], over 100 µM; in assay [9], 77.7 µM; in assay [10] it was 64.9 µM.
`C[C@@]12CCC[C@@](C)(C(=O)O)C1CC[C@]13CC(=O)[C@](CO)(C1)[C@@H](O)CC32` (stereo partly specified): the GI50 in [1], in assay [2], in [3], in [4], in assay [5] and in assay [6] was over 100 µM in each case. The GI50 in assay [7], in [8], in assay [9] and in assay [10] was over 100 µM throughout. Besides, the TGI in [1], in [2], in assay [3], in assay [4], in assay [5] and in [6] was over 100 µM in each case. Further, the TGI in assay [7], in assay [8], in assay [9] and in assay [10] was over 100 µM in each case.
Regarding `COc1cc2c3c(c1OC)-c1cc4c(cc1CC3(C#N)N(C(=O)c1ccccc1)CC2)OCO4` (stereo unspecified), the TGI is over 100 µM in assay [1]; 81.2 µM in assay [2]; 46 µM in assay [3]; over 100 µM in assay [4]; over 100 µM in [5]; 44.4 µM in assay [6]. The TGI in assay [7] is 54.1 µM; in assay [8], over 82.3 µM; in assay [9], over 100 µM; in [10], over 97.2 µM.
Turning to `C/C(=N\NC(=S)N1CCCCCC1)c1ccccn1`, the GI50 in assay [1] is 0.408 µM; in assay [2] it was 0.109 µM; in assay [3], 0.101 µM; in [5], 0.0103 µM; in assay [7] it was under 0.0182 µM; in assay [8], under 0.0122 µM. Further, the TGI in assay [1] was 6.29 µM and 3.25 µM; in assay [2], 0.623 µM and 1.39 µM; in [3], 4.38 µM and 6.44 µM; in [4], 3.46 µM and > 31.9 µM; in assay [5], 1.56 µM and 0.74 µM; in assay [6], 2.28 µM. Besides, the TGI in assay [7] was 5.85 µM and 6.33 µM; in assay [8], 2.66 µM and 6.59 µM; in [9], 0.83 µM and 0.969 µM; in [10] it was 5.45 µM and 2.73 µM.
On to `COc1ccc(C(O)(CCC(C)C)C(CN2CCOCC2)c2ccc(Cl)cc2)cc1` (stereo unspecified), for which the GI50 is 15.4 µM in [1]; 6.7 µM in assay [2]; 14.8 µM in [3]; 9.83 µM in assay [4]; 13.9 µM in [5]; 21.8 µM in assay [6]. The GI50 in assay [7] is 9.85 µM; in [8], 14.2 µM; in assay [9], 13.4 µM; in [10] it was 14.4 µM. Besides, the TGI was 29.5 µM in [1]; 21.6 µM in assay [2]; 52.4 µM in assay [3]; 33.1 µM in assay [4]; 33.2 µM in assay [5]; 75.8 µM in assay [6]. Also, the TGI in assay [7] was found to be 30.3 µM; in assay [8], 54.2 µM; in [9], 33 µM; in [10], 27.9 µM.
In the case of `COc1ccc(-c2nnc(N3CCN(C(=O)CN4CCN(c5ccccc5)CC4)CC3)nc2-c2ccc(OC)cc2)cc1`, the GI50 was 13.4 µM in [1]; 7.44 µM in assay [2]; 12.8 µM in assay [3]; 2.04 µM in [4]; 4.84 µM in assay [5]; 14.5 µM in assay [6]. The GI50 in assay [7] is 6.92 µM; in [8], 11.1 µM; in assay [9], 6.17 µM; in [10], 3.92 µM. For the same compound, the TGI in assay [1] is over 100 µM; in assay [2] it was over 100 µM; in assay [3], 77.3 µM; in assay [4], 6.64 µM; in assay [5], over 100 µM; in assay [6], 70.7 µM. The TGI is over 100 µM in [7], over 100 µM in [8], over 100 µM in assay [9] and 21.7 µM in [10].

For the origin of these results see PubChem BioAssay (NCI).
